{"source": "patent US20230407296A1", "about": "“Method to Regulate ALOX12-AS1 IncRNA-Mediated Alteration of ALOX12 Protein and to Screen for Novel Drugs to Alter ALOX12 Protein Level” (priority 2021, published 2023)", "key": {"[1]": {"tested_on": "ALOX12 protein level in THP-1 cells", "experiment": "ALOX12 protein level in TPA-treated THP-1 cells (immunoblot)", "type": "cell-based, human", "protocol": "(§1) Phorbol ester (12-O-Tetradecanoylphorbol 13-acetate: TPA) is an activator of protein kinase C (PKC) that has been frequently used for inducing the differentiation of different cell types, including myeloid cells. Activation of human monocytic cells affects ALOX expression. Therefore, we induced differentiation of monocytic THP-1 cells to macrophage-like cells (MLCs) with 100 nM TPA [91, 92] and monitored the ALOX12 protein level as well as nucleo-cytoplasmic translocation of ALOX12-AS1-201. […] We concurrently monitored expression of the integrin subunit a M (ITGAM), also known as CD11b, which regulates myeloid cell polarization and is expressed in macrophages to facilitate adhesion, migration, chemotaxis, and accumulation during inflammation. […] CD68 is a transmembrane glycoprotein that is mainly located in the endosomal/lysosomal compartment but can rapidly shuttle to the cell surface in myeloid cells. […] Based on these observations, we performed nuclear and cytoplasmic fractionation at 72 hours of TPA treatment.\n(§2) Relative quantification of proteins was performed as described previously. […] The immunoblots were imaged using a ChemiDoc XRS+ system (Bio-Rad) and band intensities were quantified using ImageJ (version 1.48) Software. […]"}, "[2]": {"tested_on": "ALOX12-AS1-201 lncRNA", "experiment": "Nucleo-cytoplasmic translocation of ALOX12-AS1-201 in THP-1 cells (FISH, fractionation, quantitative RT-PCR)", "type": "cell-based, human", "quoted_text": "Therefore, we induced differentiation of monocytic THP-1 cells to macrophage-like cells (MLCs) with 100 nM TPA [91, 92] and monitored the ALOX12 protein level as well as nucleo-cytoplasmic translocation of ALOX12-AS1-201. […] Based on these observations, we performed nuclear and cytoplasmic fractionation at 72 hours of TPA treatment.\nTotal RNA from different cell lines was extracted with Trizol reagent (Catalog number: 15596026; ThermoFisher Scientific, Canada) as per the manufacturer's recommended protocol. Total RNA (1-5 μg) was treated with RNase-free DNase I (Catalog number: M0303, New England Biolabs Inc., USA) at 37° C. for 15 min, subsequently heat-inactivated at 75° C. for 10 min and used for cDNA synthesis. […] Absolute quantification of ALOX12-AS1 lncRNA isoforms was performed in a Mastercycler®ep realplex real-time PCR system (Eppendorf, Hamburg, Germany) using SYBR green dye (Catalog number: S7563; ThermoFisher Scientific). […] Real-time PCR data quality control calculations were determined by the SAS program as described previously [101] and the calculated PCR efficiency was between 95%-99%. Quantitative RT-PCR was conducted for different cell-line derived RNAs, and the specificity of each amplified product was confirmed by melting curve analysis. Results were expressed as copy number of specific isoforms per 100 ng of total RNA."}, "[3]": {"tested_on": "THP-1 cells", "experiment": "TPA-induced differentiation of THP-1 cells to macrophage-like cells (ITGAM immunoblot, CD68 immunofluorescence)", "type": "cell-based, human", "settings": "100 nM TPA", "protocol": "as §1, §2"}, "[4]": {"tested_on": "ALOX12", "experiment": "ALOX12 catalytic activity in cell lysates (12S-HETE ELISA)", "type": "biochemical, human", "settings": "lysate of TPA-induced MLC, 50 μM arachidonic acid, 15 min, 37° C.; vehicle THP-1 lysate ~6 ng", "description": "We measured ALOX12 enzyme activity of THP-1 and TPA-induced MLC cell lysates and compared them to establish the biological relevance of lncRNA-mediated downregulation of ALOX12 protein level. We used a cell-free system to avoid any limitations of intracellular arachidonic acid uptake by an in vitro cell-based system. As well, we used a platelet-derived protein-lysate as a positive control for ALOX12 enzyme activity. ALOX12 was originally discovered and characterized as an arachidonic acid peroxidizing enzyme in platelets.\nALOX12 catalytic activity was measured in a cell-free system using cell lysates derived from unactivated human platelets (positive control) and Phorbol ester (12-O-Tetradecanoylphorbol 13-acetate: TPA)/vehicle (DMSO/ethanol)-treated THP-1. ALOX12 converts arachidonate to the bioactive lipid 12(S)-hydroperoxyeicosatetraenoate (12S-HpETE). […] The cell lysates prepared in 1×PBS supplemented with 0.5% NP40, 1× Halt protease and phosphatase inhibitor cocktail 1 were incubated with 50 μM arachidonic acid (catalogue number: A0781, Tokyo Chemical Industry, USA) for 15 min at 37° C. and the amount of 12S-HETE was quantitatively measured using a commercially available Enzyme-Linked ImmunoAssay (ELISA) kit (catalogue number: ADI-900-050, Enzo Life Sciences Inc., USA) as per the manufacturer's instructions. […]"}, "[5]": {"tested_on": "ALOX12 protein level in HEK293 cells", "experiment": "ALOX12 protein level in HEK293 cells (immunoblot)", "type": "cell-based, human", "settings": "HEK293 cells, 10 μM TPA, 1 hour, vs vehicle", "quoted_text": "As an alternative approach, multiple isoform-specific oligonucleotides (ASOs) complementary to different regions of ALOX12-AS1-201/202 were designed (FIG. 7A-C).\nRelative quantification of proteins was performed as described previously [35, 106]. The cell lysates were prepared in 1×RIPA lysis and extraction buffer (catalogue number: 89900, ThermoFisher Scientific) supplemented with 1× Halt protease and phosphatase inhibitor cocktail (catalogue number: 78441, ThermoFisher Scientific). The protein lysates were denatured in Laemmli buffer containing 2% SDS, 10% glycerol, 0.002% bromophenol blue, 0.75 M Tris-HCl pH 6.8, and 100 mM DTT. The immunoblots were imaged using a ChemiDoc XRS+ system (Bio-Rad) and band intensities were quantified using ImageJ (version 1.48) Software [107]. Due to the possibility of inconsistency in the relative expression of housekeeping genes, we normalized all proteins of interest based on the intensity of the Oriole-stained protein profile [92]."}, "[6]": {"tested_on": "ALOX12 mRNA", "settings": "A431 cells, time-dependent; cited from earlier work"}}, "data": [{"smiles": "CCCCCCCCCCCCCC(=O)O[C@@H]1[C@@H](C)[C@@]2(O)[C@@H](C=C(CO)C[C@]3(O)C(=O)C(C)=C[C@@H]23)[C@@H]2C(C)(C)[C@]12OC(C)=O", "note": "[TPA, 12-O-Tetradecanoylphorbol 13-acetate]", "values": [{"measurement": "ALOX12 protein levels", "setting": "[1]; THP-1 cells, 100 nM TPA, treatment period 1-72 h, immunoblot", "result": "dramatically reduced"}, {"measurement": "ALOX12 protein levels", "setting": "[1]; TPA-differentiated MLCs, 100 nM, 72 hours, vs vehicle (DMSO) treated THP-1 cells", "result": "concomitant decrease"}, {"measurement": "time to translocation of ALOX12-AS1-201 lncRNA to the cytosol", "setting": "[2]; THP-1 cells, 100 nM TPA, FISH", "result": "≤ 1", "unit": "h"}, {"measurement": "ALOX12-AS1-201 cytosolic abundance", "setting": "[2]; TPA-differentiated MLCs, 72 hours, vs vehicle (DMSO) treated THP-1 cells, quantitative RT-PCR", "result": "significant increase"}, {"measurement": "ITGAM expression", "setting": "[3]; immunoblot", "result": "expressed at 72 hours"}, {"measurement": "CD68 expression and localization", "setting": "[3]; immunofluorescence", "result": "gradually increasing expression and translocation of CD68 to endosomal structures"}, {"measurement": "12S-HETE production", "setting": "[4]", "result": "~1.3", "unit": "ng"}, {"measurement": "ALOX12 protein level", "setting": "[5]", "result": "significant reduction"}, {"measurement": "expression of ALOX12 mRNA", "setting": "[6]", "result": "increased"}]}]}
